Measured values from US8716231B2, “Use of benzo-fused heterocycle sulfamide derivatives for the treatment of pain” (Janssen Pharmaceutica NV, priority 2005, dated 2014).
“Also recorded” adds a separate entry of the source.

Assays:
[1] = test system: Taxol®-induced mechanical allodynia; test: Taxol Induced Peripheral Neuropathy Model (pilot), Von Frey testing; type: in vivo, Sprague-Dawley rats; conditions: 100 mg/kg po daily for 12 days with Taxol 2 mg/kg i.p. days 1, 3, 5, 7; Day 12
Protocol: In addition, the compound's effects on spontaneous locomotor activity was measured.
(§1) The animals were housed in polycarbonate plastic cages, 2 animals per cage, at a temperature of 18-26° C., 30-70% humidity, 12-hour light/dark cycle, with food and water available ad libityum.
(§2) On days 1, 3, 5, and 7, the rats received an ip (intraperitoneal) injection of Taxol® (2 mg/kg).
Two behavioral tests were performed: measurement of tactile sensitivity and spontaneous locomotor activity. At baseline and on Days 5 and 12 post-Taxol® injection, the animals underwent Von Frey testing for mechanical allodynia (according to the procedure as described in Chaplan, S R, Bach, F W, Pogrel, J W, Chung, J M, Yaksh, T L. Quantitative assessment of tactile allodynia in the rat paw. J Neurosci Meth, 53:55-63, 1994). Tactile sensitivity (i.e. mechanical allodynia) was measured using calibrated filaments touched to the plantar surface of the affected limb to determine paw withdrawal threshold. Briefly, the rats were placed in a Plexiglas cage with a wire mesh bottom and allowed to acclimate for 10 minutes. Once the animals settled, the plantar surface of the right hind paw was touched with a 2.0 g von Frey filament. […] Data were analyzed using two-way ANOVA, one-way ANOVA and Dunnett's test, with statistical significance at p<0.05.

[2] = test system: Taxol®-induced degeneration of sciatic nerve and right hind paw; test: Taxol Induced Peripheral Neuropathy Model (pilot), histopathology; type: in vivo, Sprague-Dawley rats; conditions: 100 mg/kg po daily + Taxol; Day 13
Protocol: as §1, §2
On Day 13, the animals were euthanized by carbon dioxide asphyxiation. The sciatic nerve and right hind paw were excised and placed in 10% neutral buffered formalin. The harvested tissues were blocked, embedded in paraffin, sectioned and stained with hemotoxylin and eosin. The tissue was examined using light microscopy and scored by an evaluator blind to the treatment regimen. The tissue was ranked on a scale of 0 to 3 based on the degree and amount of axonal disruption observed in the section, with 0 being a normal appearance of the axon, 1 to 2 being a mild to moderate disruption of the axons and a 3 being a complete disruption and Wallerian degeneration of the axons (Cavaletti, G, Tredici, G, Braga, M, Tazzari, S. Experimental peripheral neuropathy induced in adult rats by repeated intraperitoneal administration of Taxol®. Exper Neurol 133:64-72,1995). Data were analyzed using one-way ANOVA and Dunnett's test, with statistical significance at p<0.05.

[3] = test system: formalin-induced hyperalgesia (paw licking); test: Formalin-Induced Hyperalgesia Model; type: in vivo, CF-1 mice; conditions: Mus musculus; i.p., 2 hours before formalin; 95% CI range 53.6-225 mg/kg; read-out: median effective dose (ED50) for a 50% or greater reduction in AUC, secondary phase (phase 2, inflammatory)
Protocol: Adult male CF-1 mice weighing 2-0 g were obtained from Charles River (Wilmington, Mass.). All animals were house on a 12:12 light:dark cycle and permitted free access to both food and water, except when removed from the home cage for experimental procedures.
In this model, the injection of formalin elicits a distinct biphasic behavioral profile characterized by the mouse licking the affected paw. Immediately after the injection, the mouse licks the paw for about 10 minutes. This corresponds to phase 1 (acute response) and is followed by a brief latency period where there is little behavioral activity. A more prolonged period of about 20-30 minutes of paw licking ensues which constitutes phase 2 (inflammatory).
Two hours after administration, formalin was injected sub-dermally (20 μL, 27 gauge needle) into the plantar surface of the right hind foot. The bevel of the needle was placed facing down toward the skin surface. […] The cumulative length of licking for each 2 minute period was recorded. […] Animals were euthanized following the conclusion of the experiment.
Area under the curve (AUC) determinations were made using the GraphPad Prism Version 3.03. Total AUC was calculated for both the dosed and control groups for both acute and inflammatory phases. The AUC of individual animals for each phase was also calculated and converted to a percentage of total AUC of control.

## NS(=O)(=O)NC[C@H]1COc2cc(Cl)ccc2O1 [Compound #8, (2S)-(−)-N-(6-Chloro-2,3-dihydro-benzo[1,4]dioxin-2-ylmethyl)-sulfamide]
[1]
  effect on Taxol-induced mechanical allodynia: appeared to potentiate the pain response compared to Taxol® alone; however, this difference was not statistically significant; also recorded: ineffective in preventing the allodynia
[2]
  degeneration in the sciatic nerve (histopathology): positive trend to decreased degeneration in the sciatic nerve, although the differences were not statistically significant
  severity of degeneration in the right hind paw (histopathology): no effect on the severity of Taxol®-induced degeneration in the right hind paw
[3]
  ED50: 101 mg/kg
